Active and inactive are the calls of the source. How the calls were made is not given here.
Test system: M. tuberculosis H37Rv growth inhibition with meropenem
Experiment: dose response, H37Rv, with and without meropenem (AID 434987);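 further: growth over 7 days at 37 °C before Alamar Blue read on day 9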
[1] = M. tuberculosis H37Rv growth inhibition, measured here: IC50 without meropenem
[2] = M. tuberculosis H37Rv growth inhibition, measured here: IC90 without meropenem
[3] = measured here: IC90 with meropenem

Row | Compound | IC50 | IC50 [1] | IC90 [2] | IC90 [3]
1 | COC(=O)N1C(=O)[C@](Cc2ccccc2)(c2ccccc2)N1C(=O)OC | > 100 µM (inactive) | > 100 µM | > 100 µM | > 100 µM
2 | CC(C(=O)Nc1cc([N+](=O)[O-])ccc1Cl)N1CCN(c2ccccc2O)CC1 (stereo unspecified) | > 100 µM (inactive) | > 100 µM | > 100 µM | > 100 µM
3 | COc1ccccc1NC(=O)Nc1nn(C)c2cccc(OC)c12 | 4.18 µM | 21.1 µM | > 100 µM | > 100 µM
4 | O=C(Nc1ccccc1N1CCCC1)c1ccc2c(c1)OCO2 | 72.3 µM (inactive) | 87.3 µM | > 100 µM | > 100 µM
5 | O=C(Nc1cccc(C(F)(F)F)c1)N1CCC(c2nc(-c3ccc(F)cc3)no2)CC1 | > 100 µM (inactive) | > 100 µM | > 100 µM | > 100 µM
6 | O=C(Nc1ccc(Cl)cc1Cl)C1=Cc2ccccc2OC1 | > 100 µM (inactive) | > 100 µM | > 100 µM | > 100 µM
7 | CC1CCN(CC(CS(=O)(=O)c2ccc([N+](=O)[O-])cc2)N2CCC(C)CC2)CC1 (stereo unspecified) | 13.7 µM (inactive) | 21 µM | 30.3 µM | 31.5 µM
8 | C#CCOc1c(Cl)cc(/C=N/NC(N)=S)cc1OCC | 87.6 µM (inactive) | > 100 µM | > 100 µM | > 100 µM
9 | CC(C)CC(=O)N1CCN(c2ccc([N+](=O)[O-])c(NCc3ccccc3)c2)CC1 | 44.9 µM (inactive) | 46.7 µM | 51.5 µM | 48.6 µM
10 | COc1cc(C(=O)Oc2cccnc2)cc(OC)c1OC | 5.8 µM | 48.4 µM | > 100 µM | 13.6 µM
11 | COc1ccc(C(=O)/C=C/c2cccs2)c(OC(=O)c2cccc([N+](=O)[O-])c2)c1 | 29.5 µM (inactive) | 54.8 µM | 85.2 µM | > 100 µM
12 | CCC1Nc2ncnc(N3CCN(c4ccccc4)CC3)c2N(Cc2ccc(Br)cc2)C1=O (stereo unspecified) | > 100 µM (inactive) | > 100 µM | > 100 µM | > 100 µM
13 | NC(=S)N/N=C/c1ccc2ccccc2c1 | 2.02 µM | > 100 µM | > 100 µM | > 100 µM
14 | CCCC(C)NC(=O)c1ccccc1SC (stereo unspecified) | 36.4 µM (inactive) | 58.5 µM | > 100 µM | > 100 µM
15 | O=C(NCCC1=CCCCC1)c1ccc(Cl)c([N+](=O)[O-])c1 | 25.9 µM (inactive) | 54.3 µM | > 100 µM | 30.2 µM
16 | Cc1cc(C(=O)Nc2nnc(-c3ccccc3)s2)no1 | 45.1 µM (inactive) | 48.4 µM | > 100 µM | > 100 µM
17 | CCOC(=O)C1CCN(c2ccc(C(N)=O)cc2[N+](=O)[O-])CC1 | 16.3 µM | 55.2 µM | > 100 µM | > 100 µM
18 | Cc1ccc(-c2[nH][nH]c(=O)c(=O)c2N=Nc2ccccc2)cc1 | 4.12 µM | 51.7 µM | > 100 µM | 86.2 µM
19 | CC1CCCN(S(=O)(=O)c2ccc(C(=O)Nc3nnc(-c4ccncc4)o3)cc2)C1 (stereo unspecified) | 32.4 µM (inactive) | 49.3 µM | 78.1 µM | 64.8 µM
20 | CCCCN1C(=O)c2ccc(C(=O)Nc3cccc(C)c3C)cc2C1=O | > 100 µM (inactive) | > 100 µM | > 100 µM | > 100 µM
21 | CS(=O)(=O)N(Cc1ccccc1)c1ccc(C(=O)N2CCN(c3cccc(Cl)c3)CC2)cc1 | > 100 µM (inactive) | > 100 µM | > 100 µM | > 100 µM
22 | CC1CN(C(=S)NC(=O)c2cccc([N+](=O)[O-])c2)CC(C)O1 (stereo unspecified) | 11.8 µM | 42.3 µM | > 100 µM | > 100 µM
23 | CC(O)/C=C/c1ccc2ccccc2n1 (stereo unspecified) | 27.7 µM (inactive) | 53.9 µM | > 100 µM | 57.5 µM
24 | O=C(Nc1cccc(S(=O)(=O)NCc2ccco2)c1)c1cc(-c2ccc(F)cc2)nc2ccccc12 | 97.4 µM (inactive) | > 100 µM | > 100 µM | > 100 µM
25 | CCN(CC(=O)Nc1ccccc1OC)C(=O)c1cc(S(=O)(=O)N2CCCCCC2)ccc1OC | > 100 µM (inactive) | > 100 µM | > 100 µM | > 100 µM
26 | O=C(/C=C/c1ccc([N+](=O)[O-])cc1)c1cccs1 | 5.35 µM | 22.2 µM | 95.1 µM | 12.2 µM
27 | S=C(Nc1ccc(Cl)cc1)c1nc2ccccc2s1 | 43.2 µM (inactive) | > 100 µM | > 100 µM | > 100 µM
28 | Cc1oc(C(C)(C)C)cc1C(=O)Nc1ccc2c(c1)OCCO2 | > 100 µM (inactive) | > 100 µM | > 100 µM | > 100 µM
29 | Cc1cccnc1NC(=O)c1cc2ccccc2oc1=O | 46.7 µM (inactive) | > 100 µM | > 100 µM | > 100 µM

Source: PubChem BioAssay AID434987 (Southern Research Specialized Biocontainment Screening …, 2010)
